In patent US7781591B2, “Substituted 3-cyanopyridines as protein kinase inhibitors” (Wyeth LLC, priority 2006, dated 2010):

Molecular target: T1, human PKCθ full length enzyme (Homo sapiens, UniProt Q04759)
T1 construct: human PKCθ full length enzyme (Panvera Cat# P2996); purchased Panvera P2996
Assay: PKCθ IMAP assay (fluorescence polarization)
Format: biochemical
Details: not given

T1 sequence (Q04759 whole entry): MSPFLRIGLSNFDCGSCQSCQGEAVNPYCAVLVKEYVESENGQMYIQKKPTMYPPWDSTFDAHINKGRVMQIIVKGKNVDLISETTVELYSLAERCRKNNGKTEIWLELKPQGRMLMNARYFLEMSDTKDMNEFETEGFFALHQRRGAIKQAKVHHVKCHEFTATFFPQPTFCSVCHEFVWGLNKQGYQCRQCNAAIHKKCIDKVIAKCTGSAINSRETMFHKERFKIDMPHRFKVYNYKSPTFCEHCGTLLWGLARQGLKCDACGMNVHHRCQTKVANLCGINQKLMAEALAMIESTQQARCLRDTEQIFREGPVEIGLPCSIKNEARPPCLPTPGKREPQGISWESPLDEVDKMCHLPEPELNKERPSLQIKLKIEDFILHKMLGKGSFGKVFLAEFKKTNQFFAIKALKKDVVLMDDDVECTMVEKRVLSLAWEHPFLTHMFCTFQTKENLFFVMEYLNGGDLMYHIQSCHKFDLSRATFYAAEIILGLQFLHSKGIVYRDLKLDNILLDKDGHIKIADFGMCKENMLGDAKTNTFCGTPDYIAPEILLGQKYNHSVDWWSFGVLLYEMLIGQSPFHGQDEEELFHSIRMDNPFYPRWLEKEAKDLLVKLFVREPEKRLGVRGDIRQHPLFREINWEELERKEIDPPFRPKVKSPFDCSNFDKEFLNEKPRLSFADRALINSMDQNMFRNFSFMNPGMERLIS

SMILES	IC50
Cc1c(Nc2c(C#N)cncc2-c2cc3cc(CN4CCN(C)CC4)ccc3s2)ccc2[nH]ccc12 [Compound 521, 4-[(4-methyl-1H-indol-5-yl)amino]-5-{5-[(4-methylpiperazin-1-yl)methyl]-1-benzothien-2-yl}nicotinonitrile]	1 nM

Same assay, conditions: human PKCθ full length enzyme, IMAP; average value; read-out: IC50 PKCθ IMAP

SMILES	IC50
Cc1cc2[nH]ccc2cc1Nc1c(C#N)cncc1-c1ccc(OCCN2CCCCC2)cc1 [Compound 504, 4-[(6-methyl-1H-indol-5-yl)amino]-5-[4-(2-piperidin-1-ylethoxy)phenyl]nicotinonitrile]	84 nM
Cc1cc2[nH]ccc2cc1Nc1c(C#N)cncc1-c1ccc(OCCN2CCC(O)CC2)cc1 [Compound 505, 5-{4-[2-(4-hydroxypiperidin-1-yl)ethoxy]phenyl}-4-[(6-methyl-1H-indol-5-yl)amino]nicotinonitrile]	76 nM
Cc1cc2[nH]ccc2cc1Nc1c(C#N)cncc1-c1ccc(OCCN2CCC(N3CCCC3)CC2)cc1 [Compound 506, 4-[(6-methyl-1H-indol-5-yl)amino]-5-{4-[2-(4-pyrrolidin-1-ylpiperidin-1-yl)ethoxy]phenyl}nicotinonitrile]	83 nM
Cc1c(Nc2c(C#N)cncc2-c2ccc(N3CCOCC3)nc2)ccc2[nH]ccc12 [Compound 507, 4-[(4-methyl-1H-indol-5-yl)amino]-6′-morpholin-4-yl-3,3′-bipyridine-5-carbonitrile]	30 nM
Cc1c(Nc2c(C#N)cncc2-c2ccc(N3CCCCC3)nc2)ccc2[nH]ccc12 [Compound 508, 4-[(4-methyl-1H-indol-5-yl)amino]-6′-piperidin-1-yl-3,3′-bipyridine-5-carbonitrile]	78 nM
Cc1c(Nc2c(C#N)cncc2-c2cncnc2)ccc2[nH]ccc12 [Compound 509, 4-[(4-methyl-1H-indol-5-yl)amino]-5-pyrimidin-5-ylnicotinonitrile]	261 nM
Cc1c(Nc2c(C#N)cncc2-c2cnc(N3CCCCC3)nc2)ccc2[nH]ccc12 [Compound 510, 4-[(4-methyl-1H-indol-5-yl)amino]-5-(2-piperidin-1-ylpyrimidin-5-yl)nicotinonitrile]	300 nM
Cc1c(Nc2c(C#N)cncc2-c2cnc(N3CCOCC3)nc2)ccc2[nH]ccc12 [Compound 511, 4-[(4-methyl-1H-indol-5-yl)amino]-5-(2-morpholin-4-ylpyrimidin-5-yl)nicotinonitrile]	83 nM
Cc1c(Nc2c(C#N)cncc2-c2cnc(N3CCCC3)nc2)ccc2[nH]ccc12 [Compound 512, 4-[(4-methyl-1H-indol-5-yl)amino]-5-(2-pyrrolidin-1-ylpyrimidin-5-yl)nicotinonitrile]	215 nM
Cc1c(Nc2c(C#N)cncc2-c2cnc(N(C)C)nc2)ccc2[nH]ccc12 [Compound 513, 5-[2-(dimethylamino)pyrimidin-5-yl]-4-[(4-methyl-1H-indol-5-yl)amino]nicotinonitrile]	125 nM
Cc1c(Nc2c(C#N)cncc2-c2cc3ccccc3s2)ccc2[nH]ccc12 [Compound 514, 5-(1-benzothien-2-yl)-4-[(4-methyl-1H-indol-5-yl)amino]nicotinonitrile]	23 nM
Cc1c(Nc2c(C#N)cncc2-c2csc(C=O)c2)ccc2[nH]ccc12 [Compound 516, 5-(5-formyl-3-thienyl)-4-[(4-methyl-1H-indol-5-yl)amino]nicotinonitrile]	5 nM
Cc1c(Nc2c(C#N)cncc2-c2cc(C=O)co2)ccc2[nH]ccc12 [Compound 517, 5-(4-formyl-2-furyl)-4-[(4-methyl-1H-indol-5-yl)amino]nicotinonitrile]	8 nM
Cc1c(Nc2c(C#N)cncc2-c2csc(CN3CCN(C)CC3)c2)ccc2[nH]ccc12 [Compound 518, 4-[(4-methyl-1H-indol-5-yl)amino]-5-{5-[(4-methylpiperazin-1-yl)methyl]-3-thienyl}nicotinonitrile]	5 nM
Cc1c(Nc2c(C#N)cncc2-c2cccnc2)ccc2[nH]ccc12 [Compound 519, 4-[(4-methyl-1H-indol-5-yl)amino]-3,3′-bipyridine-5-carbonitrile]	36 nM
CN1CCN(CCOc2ccc(-c3cncc(C#N)c3Nc3ccc4[nH]ccc4c3)cc2)CC1 [Compound 520, 4-(1H-indol-5-ylamino)-5-{4-[2-(4-methylpiperazin-1-yl)ethoxy]phenyl}nicotinonitrile]	73 nM
COc1ccc(-c2cncc(C#N)c2Nc2cnc3[nH]ccc3c2Cl)cc1OC [Compound 522, 4-[(4-chloro-1H-pyrrolo[2,3-b]pyridin-5-yl)amino]-5-(3,4-dimethoxyphenyl)nicotinonitrile]	20 nM
COc1ccc(-c2c[n+]([O-])cc(C#N)c2Nc2ccc3[nH]ccc3c2)cc1OC [Compound 523, 5-(3,4-dimethoxyphenyl)-4-(1H-indol-5-ylamino)nicotinonitrile 1-oxide]	737 nM
COc1ccc(-c2cncc(C#N)c2N[C@H]2CC[C@H](N)CC2)cc1OC [Compound 524, 4-[(trans-4-aminocyclohexyl)amino]-5-(3,4-dimethoxyphenyl)nicotinonitrile]	4100 nM

SMILES	IC50
CCCCNC(=O)Nc1ccc(-c2cncc(C#N)c2Nc2ccc3[nH]ccc3c2C)cc1 [Compound 525, 1-butyl-3-(4-{5-cyano-4-[(4-methyl-1H-indol-5-yl)amino]pyridin-3-yl}phenyl)urea]	7 nM
COC(=O)Nc1ccc(-c2cncc(C#N)c2Nc2ccc3[nH]ccc3c2C)cc1 [Compound 526, methyl (4-{5-cyano-4-[(4-methyl-1H-indol-5-yl)amino]pyridin-3-yl}phenyl)carbamate]	10 nM
Cc1c(Nc2c(C#N)cncc2-c2ccc(NC(=O)OCc3ccccc3)c(F)c2)ccc2[nH]ccc12 [Compound 527, benzyl (4-{5-cyano-4-[(4-methyl-1H-indol-5-yl)amino]pyridin-3-yl}-2-fluorophenyl)carbamate]	27 nM
COc1ccc(COC(=O)Nc2ccc(-c3cncc(C#N)c3Nc3ccc4[nH]ccc4c3C)cc2F)cc1 [Compound 528, 4-methoxybenzyl (4-{5-cyano-4-[(4-methyl-1H-indol-5-yl)amino]pyridin-3-yl}-2-fluorophenyl)carbamate]	40 nM
Cc1c(Nc2c(C#N)cncc2-c2cc3cc(CN4CCN(C)CC4)ccc3o2)cc(Cl)c2[nH]ccc12 [Compound 529, 4-[(7-chloro-4-methyl-1H-indol-5-yl)amino]-5-{5-[(4-methylpiperazin-1-yl)methyl]-1-benzofuran-2-yl}nicotinonitrile]	2 nM
COc1ccc(-c2cncc(C#N)c2Nc2ccc(C)c3cc[nH]c23)cc1OC [Compound 530, 5-(3,4-dimethoxyphenyl)-4-[(4-methyl-1H-indol-7-yl)amino]nicotinonitrile]	179 nM
Cc1c(Nc2c(C#N)cncc2-c2cc3ccccc3o2)cc(Cl)c2[nH]ccc12 [Compound 531, 5-(1-benzofuran-2-yl)-4-[(7-chloro-4-methyl-1H-indol-5-yl)amino]nicotinonitrile]	20 nM
Cc1c(Nc2c(C#N)cncc2-c2ccc(OCCCl)cc2)cc(Cl)c2[nH]ccc12 [Compound 533, 5-[4-(2-chloroethoxy)phenyl]-4-[(7-chloro-4-methyl-1H-indol-5-yl)amino]nicotinonitrile]	51 nM
Cc1c(Nc2c(C#N)cncc2-c2ccc(OCCN(C)C)cc2)cc(Cl)c2[nH]ccc12 [Compound 534, 4-[(7-chloro-4-methyl-1H-indol-5-yl)amino]-5-{4-[2-(dimethylamino)ethoxy]phenyl}nicotinonitrile]	17 nM
Cc1c(Nc2c(C#N)cncc2-c2ccc(OCCN3CCN(C)CC3)cc2)cc(Cl)c2[nH]ccc12 [Compound 535, 4-[(7-chloro-4-methyl-1H-indol-5-yl)amino]-5-{4-[2-(4-methylpiperazin-1-yl)ethoxy]phenyl}nicotinonitrile]	38 nM
Cc1c(Nc2c(C#N)cncc2-c2cc3cc(CN4CCN(C(=O)OC(C)(C)C)CC4)ccc3o2)ccc2[nH]ccc12 [Compound 536, tert-butyl 4-[(2-{5-cyano-4-[(4-methyl-1H-indol-5-yl)amino]pyridin-3-yl}-1-benzofuran-5-yl)methyl]piperazine-1-carboxylate]	58 nM
Cc1c(Nc2c(C#N)cncc2-c2cnc(C=O)n2C)ccc2[nH]ccc12 [Compound 537, 5-(2-formyl-1-methyl-1H-imidazol-5-yl)-4-[(4-methyl-1H-indol-5-yl)amino]nicotinonitrile]	23 nM
Cc1c(Nc2c(C#N)cncc2-c2cc3cc(CN4CCN(S(C)(=O)=O)CC4)ccc3o2)ccc2[nH]ccc12 [Compound 538, 4-[(4-methyl-1H-indol-5-yl)amino]-5-(5-{[4-(methylsulfonyl)piperazin-1-yl]methyl}-1-benzofuran-2-yl)nicotinonitrile]	15 nM
Cc1c(Nc2c(C#N)cncc2-c2cnc(CN3CCN(C)CC3)n2C)ccc2[nH]ccc12 [Compound 539, 4-[(4-methyl-1H-indol-5-yl)amino]-5-{1-methyl-2-[(4-methylpiperazin-1-yl)methyl]-1H-imidazol-5-yl}nicotinonitrile]	36 nM
Cc1c(Nc2c(C#N)cncc2-c2cc3cc(CN4CCNCC4)ccc3o2)ccc2[nH]ccc12 [Compound 540, 4-[(4-methyl-1H-indol-5-yl)amino]-5-[5-(piperazin-1-ylmethyl)-1-benzofuran-2-yl]nicotinonitrile]	5 nM
Cc1c(Nc2c(C#N)cncc2-c2nccs2)ccc2[nH]ccc12 [Compound 541, 4-[(4-methyl-1H-indol-5-yl)amino]-5-(1,3-thiazol-2-yl)nicotinonitrile]	7 nM
Cc1c(Nc2c(C#N)cncc2-c2nccn2C)ccc2[nH]ccc12 [Compound 542, 5-(1-methyl-1H-imidazol-2-yl)-4-[(4-methyl-1H-indol-5-yl)amino]nicotinonitrile]	42 nM
Cc1c(Nc2c(C#N)cncc2-c2cscn2)ccc2[nH]ccc12 [Compound 543, 4-[(4-methyl-1H-indol-5-yl)amino]-5-(1,3-thiazol-4-yl)nicotinonitrile]	8 nM
COc1ccc(-c2cncc(C#N)c2Nc2cccc3cc[nH]c23)cc1OC [Compound 544, 5-(3,4-dimethoxyphenyl)-4-(1H-indol-7-ylamino)nicotinonitrile]	737 nM
